We go through 7 molecules from US8575135B2 (Gilead Sciences, Inc., priority 2011, dated 2013).

For data set [1], the system named is stable HCV 1a RLuc replicon cells (genotype 1a H77 replicon). In words: microbe, parasite or virus in culture. To be noted: Hepatitis C virus. It counts as cell-based.
Data set [2] relates to stable HCV 2a JFH-1 Rluc replicon cells (L31 present in NS5A). In words: microbe, parasite or virus in culture. Type of data set: cell-based. To be noted: Hepatitis C virus.
For data set [3], the system named is NS5A chimeric genotype 1b Con1 replicon with genotype 3a S52 strain NS5A gene. In words: microbe, parasite or virus in culture. The note with it: Hepatitis C virus. It counts as cell-based, HCV. Summed up: (§1)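 Con1-based 3a and 4a chimeras carried a Pi-RLuc reporter and were transiently transfected into Huh-Lunet cells; the JFH-1-based 2b chimera (RLuc-Neo) was used transiently or as stable replicon cells.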

In data set [4] the test system is NS5A chimeric genotype 2a JFH-1 replicon with genotype 2a J6 strain NS5A gene (M31 present). Briefly: microbe, parasite or virus in culture. Type of data set: cell-based, HCV. To be noted: Hepatitis C virus.
Data set [5] concerns NS5A chimeric genotype 2a JFH-1 replicon with genotype 2b MD2b-1 strain NS5A gene (M31 present). In words: microbe, parasite or virus in culture. The note with it: Hepatitis C virus. It counts as cell-based, HCV. In short, it runs like this: as §1
Data set [6] relates to 1a Pi-Rluc replicon with Q30R in genotype 1a NS5A. In words: microbe, parasite or virus in culture. It counts as cell-based, HCV. The note with it: Hepatitis C virus. In short, it runs like this:
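Q30R introduced by site-directed mutagenesis into genotype 1a Pi-RLuc replicon; RNA transiently transfected into Huh-7-derived cured-51 cells.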

The nature of data set [7]: IV and PO single dose pharmacokinetic studies in SD rats. Type of data set: in vivo. The note with it: male, Sprague-Dawley, rat, plasma, IV infusion 1 mg/kg vs oral gavage 2 mg/kg, read-out: Rat % F. Here is the method: IV and PO Single Dose Pharmacokinetic Studies in SD Rats: The pharmacokinetics of selected compounds was characterized in male Sprague-Dawley (SD) rats (250-300g). […] The intravenous (IV) dosing vehicle was 5% ethanol, 35% polyethylene glycol 400 (PEG 400) and 60% water pH 2.0. […] Serial blood samples (approximately 0.3 mL each) were collected from jugular vein or other suitable vein at specified time points. […] The blood samples were collected into Vacutainer™ tubes containing EDTA-K3 as the anti-coagulant and were centrifuged at approximately 4° C. to obtain plasma. The plasma samples were stored at −20° C. until analysis by LC/MS/MS. A bioanalytical method utilizing high performance liquid chromatography coupled to tandem mass spectrometry (LC/MS/MS) was developed for analysis of the selected compound in rat plasma. Detection was performed using selected reaction monitoring (SRM); […] Standard curve and quality control samples were prepared in male rat plasma and processed in the same way as the test samples to generate quantitative data. Pharmacokinetic parameters were generated using non-compartmental pharmacokinetic analysis (Phoenix WinNonlin, version 6.3). Values below the lower limit of quantification (LLOQ) were assigned a value of zero if predose and treated as missing thereafter. Area under the curve (AUC) was calculated using the linear trapezoidal rule. The oral bioavailability (% F) was determined by comparison of the area under the curve (AUC) of the compound and/or a metabolite generated in plasma following oral administration to that generated following intravenous administration.

Data set [8] deals with stable HCV 1b RLuc replicon cells (genotype 1b Con1 replicon). Briefly: microbe, parasite or virus in culture. Type of data set: cell-based. The note with it: Hepatitis C virus, read-out: 1b (nM).
The subject of data set [9] is NS5A chimeric genotype 1b Con1 replicon with genotype 4a ED43 strain NS5A gene. Briefly: microbe, parasite or virus in culture. Type of data set: cell-based, HCV. To be noted: Hepatitis C virus.

Like-named read-outs stand apart in the source and are kept apart here.

For the molecule `COC(=O)N[C@H](C(=O)N1[C@@H](C)CC[C@H]1c1ncc(-c2ccc3c(c2)COc2cc4c(ccc5nc([C@@H]6C[C@H](C)CN6C(=O)[C@H](NC(=O)OC)c6ccccc6)[nH]c54)cc2-3)[nH]1)C(C)C` [Compound 617], the EC50 is less than 1 nM in data set [1] (read-out: 1a); 0.009 nM in data set [1] (read-out: 1a (nM)); less than 1 nM in data set [2] (read-out: 2a JFH); 0.004 nM in [2] (read-out: 2a JFH (nM)); less than 1 nM in data set [3] (read-out: 3a); 0.019 nM in data set [3] (read-out: 3a (nM)). In addition, the EC50 in [4] (read-out: 2a J6) is less than 1 nM; in data set [4] (read-out: 2a Jb (t) (nM)), 0.032 nM; in data set [5] (read-out: 2b), less than 1 nM; in data set [5] (read-out: 2b (s) (nM)), 0.011 nM; in data set [5] (read-out: 2b (t) (nM)), 0.013 nM; in [6] (read-out: 1a Q30R), less than 1 nM. Moreover, the EC50 in data set [6] (read-out: 1a Q30R (nM)) was 0.024 nM. Also, the bioavailability in [7] worked out at 14.4%.

For `COC[C@H]1C[C@@H](c2nc3ccc4cc5c(cc4c3[nH]2)OCc2cc(-c3cnc([C@@H]4CC6C[C@H]6N4C(=O)[C@@H](NC(=O)OC)C(C)C)[nH]3)ccc2-5)N(C(=O)[C@H](NC(=O)OC)c2ccccc2)C1` (stereo partly drawn) [Example LT, methyl{2-[2-{9-[2-(2-{2-[(methoxycarbonyl)amino]-3-methylbutanoyl}-2-azabicyclo[3.1.0]hex-3-yl)-1H-imidazol-5-yl]-1,11-dihydroisochromeno[4′,3′:6,7]naphtho[1,2-d]imidazol-2-yl}-4-(methoxymethyl)pyrrolidin-1-yl]-2-oxo-1-phenylethyl}carbamate], the EC50 is less than 1 nM in data set [1] (read-out: 1a); 0.009 nM in data set [1] (read-out: 1a (nM)); 0.016 nM in data set [8]; less than 1 nM in data set [2] (read-out: 2a JFH); 0.004 nM in [2] (read-out: 2a JFH (nM)); less than 1 nM in data set [3] (read-out: 3a). Moreover, the EC50 in data set [3] (read-out: 3a (nM)) is 0.012 nM; in [4] (read-out: 2a J6) it was less than 1 nM; in [4] (read-out: 2a J6 (s) (nM)), 0.047 nM; in data set [4] (read-out: 2a Jb (t) (nM)), 0.01 nM; in [5] (read-out: 2b) it was less than 1 nM; in [5] (read-out: 2b (s) (nM)) it was 0.039 nM. Moreover, the EC50 in data set [5] (read-out: 2b (t) (nM)) is 0.009 nM; in data set [9] (read-out: 4a), less than 1 nM; in data set [9] (read-out: 4a (s) (nM)), 0.009 nM; in data set [9] (read-out: 4a (t) (nM)) it was 0.015 nM; in data set [6] (read-out: 1a Q30R), less than 1 nM; in data set [6] (read-out: 1a Q30R (nM)), 0.01 nM.

As to `COC(=O)N[C@H](C(=O)N1CCC[C@H]1c1nc2c(ccc3cc4c(cc32)OCc2cc(-c3cnc([C@@H]5CCCN5C(=O)[C@H](NC(=O)OC)c5ccccc5)[nH]3)ccc2-4)[nH]1)C(C)C` [Example MD], the EC50 in [1] (read-out: 1a) is less than 1 nM; in data set [1] (read-out: 1a (nM)), 0.035 nM; in data set [8], 0.033 nM; in data set [2] (read-out: 2a JFH), less than 1 nM; in data set [2] (read-out: 2a JFH (nM)), 0.006 nM; in data set [3] (read-out: 3a) it was less than 1 nM. Further, the EC50 in [3] (read-out: 3a (nM)) was 0.006 nM; in [4] (read-out: 2a J6) it was less than 1 nM; in [4] (read-out: 2a J6 (s) (nM)), 0.439 nM; in [4] (read-out: 2a Jb (t) (nM)) it was 0.073 nM; in data set [5] (read-out: 2b), less than 1 nM; in data set [5] (read-out: 2b (s) (nM)), 0.038 nM. The EC50 is 0.016 nM in [5] (read-out: 2b (t) (nM)); less than 1 nM in [9] (read-out: 4a); 0.035 nM in data set [9] (read-out: 4a (s) (nM)); 0.011 nM in [9] (read-out: 4a (t) (nM)); less than 1 nM in [6] (read-out: 1a Q30R); 0.192 nM in data set [6] (read-out: 1a Q30R (nM)).

On to `COC(=O)N[C@H](C(=O)N1CCC[C@H]1c1ncc(-c2ccc3c(c2)COc2cc4c(cc2-3)CCc2[nH]c([C@@H]3CCCN3C(=O)[C@@H](NC(=O)OC)C(C)C)nc2-4)[nH]1)C(C)C` [Example ME], for which the EC50 in data set [1] (read-out: 1a) is less than 1 nM; in [1] (read-out: 1a (nM)) it was 0.033 nM; in data set [8], 0.049 nM; in data set [2] (read-out: 2a JFH), less than 1 nM; in data set [2] (read-out: 2a JFH (nM)) it was 0.012 nM; in [3] (read-out: 3a), less than 1 nM. Besides, the EC50 in data set [3] (read-out: 3a (nM)) was 0.015 nM; in data set [4] (read-out: 2a J6), 1 to 4.99 nM; in data set [4] (read-out: 2a J6 (s) (nM)) it was 16.1 nM; in data set [4] (read-out: 2a Jb (t) (nM)) it was 3.43 nM; in [5] (read-out: 2b), less than 1 nM; in data set [5] (read-out: 2b (s) (nM)), 0.701 nM. The EC50 in data set [5] (read-out: 2b (t) (nM)) was 0.198 nM; in data set [9] (read-out: 4a), less than 1 nM; in data set [9] (read-out: 4a (s) (nM)), 0.029 nM; in data set [9] (read-out: 4a (t) (nM)) it was 0.016 nM; in data set [6] (read-out: 1a Q30R), 1 to 44 nM; in data set [6] (read-out: 1a Q30R (nM)) it was 2.51 nM.

Turning to `COC(=O)N[C@H](C(=O)N1CCC[C@H]1c1nc2c([nH]1)CCc1cc3c(cc1-2)OCc1cc(-c2cnc([C@@H]4CCCN4C(=O)[C@H](NC(=O)OC)c4ccccc4)[nH]2)ccc1-3)C(C)C` [Example MF, methyl[1-(2-{5-[2-(1-{[(methoxycarbonyl)amino]-3-methyl-1-oxobutan-2-yl}pyrrolidin-2-yl)-1,4,5,11-tetrahydroisochromeno[4′,3′:6,7]naphtho[1,2-d]imidazol-9-yl]-1H-imidazol-2-yl}pyrrolidin-1-yl)-phenyl-1-oxoacet-2-yl]carbamate], the EC50 in data set [1] (read-out: 1a) is less than 1 nM; in data set [1] (read-out: 1a (nM)), 0.059 nM; in data set [8], 0.058 nM; in data set [2] (read-out: 2a JFH), less than 1 nM; in data set [2] (read-out: 2a JFH (nM)) it was 0.012 nM; in data set [3] (read-out: 3a), less than 1 nM. Moreover, the EC50 is 0.011 nM in [3] (read-out: 3a (nM)); less than 1 nM in [4] (read-out: 2a J6); 2.14 nM in data set [4] (read-out: 2a J6 (s) (nM)); 0.476 nM in [4] (read-out: 2a Jb (t) (nM)); less than 1 nM in [5] (read-out: 2b); 0.083 nM in [5] (read-out: 2b (s) (nM)). Further, the EC50 in data set [9] (read-out: 4a) is less than 1 nM; in data set [9] (read-out: 4a (t) (nM)) it was 0.025 nM; in [6] (read-out: 1a Q30R) it was less than 1 nM; in data set [6] (read-out: 1a Q30R (nM)), 0.768 nM.

For the molecule `COC(=O)N[C@H](C(=O)N1CCC[C@H]1c1ncc(-c2ccc3c(c2)COc2cc4c(cc2-3)CCc2[nH]c([C@@H]3CCCN3C(=O)[C@H](NC(=O)OC)c3ccccc3)nc2-4)[nH]1)C(C)C` [Example MG], the EC50 in data set [1] (read-out: 1a) is less than 1 nM; in [1] (read-out: 1a (nM)) it was 0.054 nM; in data set [8], 0.055 nM; in data set [2] (read-out: 2a JFH), less than 1 nM; in data set [2] (read-out: 2a JFH (nM)), 0.012 nM; in data set [3] (read-out: 3a), less than 1 nM. In addition, the EC50 in [3] (read-out: 3a (nM)) was 0.01 nM; in data set [4] (read-out: 2a J6), less than 1 nM; in data set [4] (read-out: 2a J6 (s) (nM)), 2.29 nM; in data set [4] (read-out: 2a Jb (t) (nM)), 0.337 nM; in data set [5] (read-out: 2b), less than 1 nM; in data set [5] (read-out: 2b (s) (nM)), 0.07 nM. The EC50 is less than 1 nM in data set [9] (read-out: 4a); 0.08 nM in data set [9] (read-out: 4a (s) (nM)); 0.024 nM in [9] (read-out: 4a (t) (nM)); less than 1 nM in data set [6] (read-out: 1a Q30R); 0.663 nM in data set [6] (read-out: 1a Q30R (nM)).

Consider `COC[C@H]1C[C@@H](c2ncc(-c3ccc4c(c3)COc3cc5c(ccc6nc([C@@H]7C[C@H]8C[C@H]8N7C(=O)[C@H](NC(=O)OC)c7ccccc7)[nH]c65)cc3-4)[nH]2)N(C(=O)[C@@H](NC(=O)OC)C(C)C)C1` [Example MV], for which the EC50 in data set [1] (read-out: 1a) is less than 1 nM; in [1] (read-out: 1a (nM)), 0.01 nM; in data set [8], 0.014 nM; in data set [2] (read-out: 2a JFH) it was less than 1 nM; in data set [2] (read-out: 2a JFH (nM)), 0.004 nM; in [3] (read-out: 3a), less than 1 nM. Besides, the EC50 in [3] (read-out: 3a (nM)) was 0.011 nM; in [4] (read-out: 2a J6), less than 1 nM; in [4] (read-out: 2a J6 (s) (nM)) it was 0.034 nM; in data set [4] (read-out: 2a Jb (t) (nM)), 0.047 nM; in data set [5] (read-out: 2b) it was less than 1 nM; in [5] (read-out: 2b (t) (nM)), 0.041 nM. In addition, the EC50 is less than 1 nM in data set [9] (read-out: 4a), 0.011 nM in [9] (read-out: 4a (s) (nM)), less than 1 nM in data set [6] (read-out: 1a Q30R) and 0.012 nM in data set [6] (read-out: 1a Q30R (nM)).
